Patent publication JPH10251228A, “ニューロキニンアンタゴニストとしてのピペリジン誘導体” (Schering Plough Corp, priority 1997, dated 1998)
Where two headings read alike, the source gives them in different places.

Columns and labels:
[1] = target: T1, human NK-1 receptor (ヒトNK-1レセプター) (Homo sapiens, UniProt P25103); test: Neurokinin receptor binding assay, human NK1 ([3H]-substance P displacement, transfected CHO cell membranes)
T1 construct: expressed in transfected cells; host or cells: Chinese hamster ovary (CHO) cells, G418-selected; membranes prepared
T1 sequence (P25103 whole entry): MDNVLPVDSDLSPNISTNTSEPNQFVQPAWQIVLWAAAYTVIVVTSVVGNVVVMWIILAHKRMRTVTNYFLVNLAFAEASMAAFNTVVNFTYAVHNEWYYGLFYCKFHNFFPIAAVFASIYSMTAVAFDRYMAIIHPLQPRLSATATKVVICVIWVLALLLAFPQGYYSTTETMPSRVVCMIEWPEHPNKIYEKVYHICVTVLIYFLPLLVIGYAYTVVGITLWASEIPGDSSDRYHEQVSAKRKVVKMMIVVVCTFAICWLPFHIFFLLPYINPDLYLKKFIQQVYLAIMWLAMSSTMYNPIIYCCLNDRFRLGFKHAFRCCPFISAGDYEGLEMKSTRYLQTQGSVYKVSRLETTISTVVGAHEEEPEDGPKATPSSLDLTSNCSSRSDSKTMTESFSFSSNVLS

[2] = target: T2, human NK-2 receptor (ヒトNK-2レセプター) (Homo sapiens, UniProt P21452); test: Neurokinin receptor binding assay, human NK2 ([3H]-neurokinin A displacement, transfected CHO cell membranes)
T2 construct: expressed in transfected cells; host or cells: Chinese hamster ovary (CHO) cells, G418-selected; membranes prepared
T2 sequence (P21452 1-398): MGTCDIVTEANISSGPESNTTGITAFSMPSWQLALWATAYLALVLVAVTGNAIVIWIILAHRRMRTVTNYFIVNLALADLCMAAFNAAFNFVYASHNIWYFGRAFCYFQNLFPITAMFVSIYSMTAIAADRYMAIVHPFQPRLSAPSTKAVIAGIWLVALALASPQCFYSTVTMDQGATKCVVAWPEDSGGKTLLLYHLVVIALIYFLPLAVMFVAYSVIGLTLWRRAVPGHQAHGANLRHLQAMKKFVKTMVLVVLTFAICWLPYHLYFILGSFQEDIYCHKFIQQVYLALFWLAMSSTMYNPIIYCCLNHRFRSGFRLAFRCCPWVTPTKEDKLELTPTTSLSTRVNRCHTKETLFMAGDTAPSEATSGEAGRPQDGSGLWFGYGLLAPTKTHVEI

[3] = neurokinin receptor binding assay, [3H]-neurokinin A 1.0 nM, CHO membranes, Cheng-Prusoff, read-out: NK2 Ki (binding)

Row | SMILES | Ki [1] [nM] | Ki [2] [nM] | Ki [2, 3] [nM] | Ki ([1]; neurokinin receptor binding assay, [3H]-substance P 0.8 nM, CHO membranes, Cheng-Prusoff, read-out: NK1 Ki (binding)) [nM]
1 | COc1ccccc1CN(C)C(=O)CC(CCN1CCC(O)(c2ccccc2)CC1)c1ccc(Cl)c(Cl)c1 (stereo not drawn) [β-(3,4-ジクロロフェニル)-4-ヒドロキシ-N-[(2-メトキシフェニル)メチル]-N-メチル-4-フェニル-1-ピペリジンペンタミド] | 7.5 | 33 |  | 
2 | COc1cccc(CN(C)C(=O)CC(CCN2CCC(O)(c3ccccc3)CC2)c2ccc(Cl)c(Cl)c2)c1 (stereo not drawn) [β-(3,4-ジクロロフェニル)-4-ヒドロキシ-N-[(3-メトキシフェニル)メチル]-N-メチル-4-フェニル-1-ピペリジンペンタミド] | 12 |  | 215 | 
3 | CN(CCc1ccccc1)C(=O)CC(CCN1CCC(O)(c2ccccc2)CC1)c1ccc(Cl)c(Cl)c1 (stereo not drawn) [β-(3,4-ジクロロフェニル)-4-ヒドロキシ-N-メチル-4-フェニル-N-(2-フェニルエチル)-1-ピペリジンペンタミド] | 70 | 46 |  | 
4 | CN(Cc1ccccc1)C(=O)CC(CCN1CCC(O)(c2ccccc2)CC1)c1ccc(Cl)c(Cl)c1 (stereo not drawn) [β-(3,4-ジクロロフェニル)-4-ヒドロキシ-N-メチル-4-フェニル-N-(フェニルメチル)-1-ピペリジンペンタミド] | 6.8 |  | 108 | 
5 | CN(C(=O)CC(CCN1CCC(O)(c2ccccc2)CC1)c1ccc(Cl)c(Cl)c1)c1ccccc1 (stereo not drawn) [β-(3,4-ジクロロフェニル)-4-ヒドロキシ-N-メチル-N,4-ジフェニル-1-ピペリジンペンタミド] |  | 5.2 |  | 150
